In patent US20250032623A1, “HETEROBIFUNCTIONAL COMPOUNDS AND THEIR USE IN TREATING DISEASE” (HALDA THERAPEUTICS OPCO, INC., priority 2021, published 2025):

Legend:
[1] = target: T1, EGFR WT (amino acids 669-1011, Accession Number NP_005219.2) (Homo sapiens, UniProt P00533); assay: KdELECT binding assay (Eurofins Discovery), EGFR WT
T1 construct: purchased Eurofins Discovery; host or cells: bacteria (E. coli, BL21-derived, T7 phage)
Summary of the method: (§1)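 Competition binding: WT kinase as T7 phage fusion from E. coli, T790M/L858R produced in HEK-293 and DNA-tagged, incubated 1 h at room temperature with immobilized ligand beads and compound (11-point 3-fold series, 0.9% DMSO). Bead-bound kinase eluted and quantified by qPCR to derive Kd.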

EGFR = target: T2, EGFR (Homo sapiens, UniProt P00533); assay: KdELECT binding assay, EGFR
T2 construct: purchased
Summary of the method: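 Competition binding: DNA- or T7 phage-tagged EGFR was incubated 1 h at room temperature with immobilized ligand beads and an 11-point 3-fold compound series (0.9% DMSO final). Bead-bound kinase was eluted and quantified by qPCR to derive Kd.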

[2] = target: T3, full-length CDK9 (amino acids 1-372; Accession Number NP_001252.1) (Homo sapiens, UniProt P50750); assay: KdELECT binding assay, CDK9
T3 construct: full-length CDK9 (amino acids 1-372); purchased; host or cells: bacteria (E. coli, BL21-derived, T7 phage)
Experimental: Exemplary compounds were tested for ability to bind to full-length CDK9 (amino acids 1-372; Accession Number NP_001252.1) expressed from bacteria. Compounds were tested using a KdELECT assay.
Kinase-tagged T7 phage strains were prepared in an E. coli host derived from the BL21 strain. E. coli were grown to log-phase and infected with T7 phage and incubated with shaking at 32° C. until lysis. The lysates were centrifuged and filtered to remove cell debris. The remaining kinases were produced in HEK-293 cells and subsequently tagged with DNA for qPCR detection. Streptavidin-coated magnetic beads were treated with biotinylated small molecule ligands for 30 minutes at room temperature to generate affinity resins for kinase assays. The liganded beads were blocked with excess biotin and washed with blocking buffer (SeaBlock (Pierce), 1% BSA, 0.05% Tween 20, 1 mM DTT) to remove unbound ligand and to reduce non-specific binding. Binding reactions were assembled by combining kinases, liganded affinity beads, and test compounds in 1× binding buffer (20% SeaBlock, 0.17×PBS, 0.05% Tween 20, 6 mM DTT). Test compounds were prepared as 111× stocks in 100% DMSO. Kd values were determined using an 11-point 3-fold compound dilution series with three DMSO control points. All compounds for Kd measurements are distributed by acoustic transfer (non-contact dispensing) in 100% DMSO. The compounds were then diluted directly into the assays such that the final concentration of DMSO was 0.9%. All reactions performed in polypropylene 384-well plate. Each was a final volume of 0.02 mL. The assay plates were incubated at room temperature with shaking for 1 hour and the affinity beads were washed with wash buffer (1×PBS, 0.05% Tween 20). The beads were then re-suspended in elution buffer (1×PBS, 0.05% Tween 20, 0.5 μM nonbiotinylated affinity ligand) and incubated at room temperature with shaking for 30 minutes. The kinase concentration in the eluates was measured by qPCR.

[3] = target: T4, EGFR T790M, L858R (amino acids 669-1011 Accession Number NP_005219.2) (Homo sapiens, UniProt P00533, L858R/T790M); assay: KdELECT binding assay (Eurofins Discovery), EGFR T790M, L858R; conditions: read-out: EGFR DM Kd
T4 construct: purchased Eurofins Discovery; host or cells: mammalian cells (HEK-293)
Summary of the method: as §1

HEK293 cells = assay: Cellular growth inhibition assay (CellTiter-Glo), HEK293 cells; assay type: cell-based; conditions: Homo sapiens, 72 h, three days compound treatment, CellTiter-Glo 2.0, read-out: CTG HEK293 GI50
Summary of the method: (§2)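 HEK293 or HeLa cells seeded at 500 cells/well in DMEM with 10% FBS, treated after 24 h with titrated compound for three days at 37 °C, 5% CO2. CellTiter-Glo 2.0 luminescence read on Day 0 and Day 3, normalized to DMSO, four-parameter fit giving GI50.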

HeLa cells = assay: Cellular growth inhibition assay (CellTiter-Glo), HeLa cells; assay type: cell-based; conditions: Homo sapiens, 72 h, three days compound treatment, CellTiter-Glo 2.0, read-out: CTG HELA GI50
Summary of the method: as §2

KRAS G12C = target: T5, KRAS G12C (Homo sapiens, UniProt P01116, G12C); assay: KRAS G12C nucleotide exchange assay (SOS1 mediated, HTRF); assay type: biochemical; conditions: 1 hr pre-incubation at RT, read-out: IC50 (inhibition of KRas G12C)
T5 construct: Kras (aa 2-169), GST; purchased Reaction Biology Corporation (RBC)
Experimental: Exemplary compounds were tested for ability to inhibit KRas G12C.
KRAS target engagement (IC50 determination) was performed using a KRAS G12C nucleotide exchange assay (Reaction Biology Corporation). Specifically, compounds were tested against KRAS G12C in 10-point concentration IC50 mode with 3-fold serial dilution at a starting concentration of 10 μM. ARS1620 was used as a control. Compounds were pre-incubated with protein for 1 hr at RT. Parameters for the assay were:
In the method, Kras was mixed with a-GST Tb antibody (1.5× solution) and […] was delivered to reaction wells. Compounds were delivered using acoustic dispenser (Echo, Labcyte). Kras/aGST-Tb Ab/compound mixture was incubated for 1 hour at room temperature. A 3× solution of SOS1 and GTP* was prepared in reaction buffer. A […] aliquot of SOS1/GTP* solution was added to reaction well to initiate the exchange reaction. No—SOS1 reaction or max compound concentration was used as blank. IC50 determination was performed using a Sigmoidal dose response (variable slope) equation.

T3 sequence (P50750 whole entry, the tested form may be a part): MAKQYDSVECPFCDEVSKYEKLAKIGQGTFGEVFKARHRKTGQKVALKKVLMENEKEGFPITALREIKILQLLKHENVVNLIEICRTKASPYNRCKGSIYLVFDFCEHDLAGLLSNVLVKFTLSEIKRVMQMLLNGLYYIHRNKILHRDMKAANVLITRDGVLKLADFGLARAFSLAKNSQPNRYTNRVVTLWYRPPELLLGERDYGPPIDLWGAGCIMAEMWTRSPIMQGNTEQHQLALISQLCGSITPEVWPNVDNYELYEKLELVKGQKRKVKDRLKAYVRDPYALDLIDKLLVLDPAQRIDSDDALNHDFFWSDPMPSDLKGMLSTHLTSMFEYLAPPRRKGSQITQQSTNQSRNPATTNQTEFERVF
T5 sequence (P01116 2-169 isoform P01116-2 G12C): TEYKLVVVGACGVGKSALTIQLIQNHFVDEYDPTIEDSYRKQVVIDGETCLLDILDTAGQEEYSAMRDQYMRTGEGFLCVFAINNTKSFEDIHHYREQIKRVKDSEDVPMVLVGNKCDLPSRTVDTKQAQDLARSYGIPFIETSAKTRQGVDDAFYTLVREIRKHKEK
T4 sequence (P00533 669-1011 T790M/L858R): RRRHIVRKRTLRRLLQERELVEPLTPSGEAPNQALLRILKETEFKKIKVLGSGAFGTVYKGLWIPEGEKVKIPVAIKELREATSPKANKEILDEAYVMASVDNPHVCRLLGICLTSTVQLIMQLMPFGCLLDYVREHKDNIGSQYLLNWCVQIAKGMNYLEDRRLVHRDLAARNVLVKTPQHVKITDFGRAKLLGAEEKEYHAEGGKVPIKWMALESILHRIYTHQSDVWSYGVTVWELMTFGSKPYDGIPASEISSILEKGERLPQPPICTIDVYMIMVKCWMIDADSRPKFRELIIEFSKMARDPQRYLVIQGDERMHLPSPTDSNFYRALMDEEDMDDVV
T2 sequence (P00533 25-1210): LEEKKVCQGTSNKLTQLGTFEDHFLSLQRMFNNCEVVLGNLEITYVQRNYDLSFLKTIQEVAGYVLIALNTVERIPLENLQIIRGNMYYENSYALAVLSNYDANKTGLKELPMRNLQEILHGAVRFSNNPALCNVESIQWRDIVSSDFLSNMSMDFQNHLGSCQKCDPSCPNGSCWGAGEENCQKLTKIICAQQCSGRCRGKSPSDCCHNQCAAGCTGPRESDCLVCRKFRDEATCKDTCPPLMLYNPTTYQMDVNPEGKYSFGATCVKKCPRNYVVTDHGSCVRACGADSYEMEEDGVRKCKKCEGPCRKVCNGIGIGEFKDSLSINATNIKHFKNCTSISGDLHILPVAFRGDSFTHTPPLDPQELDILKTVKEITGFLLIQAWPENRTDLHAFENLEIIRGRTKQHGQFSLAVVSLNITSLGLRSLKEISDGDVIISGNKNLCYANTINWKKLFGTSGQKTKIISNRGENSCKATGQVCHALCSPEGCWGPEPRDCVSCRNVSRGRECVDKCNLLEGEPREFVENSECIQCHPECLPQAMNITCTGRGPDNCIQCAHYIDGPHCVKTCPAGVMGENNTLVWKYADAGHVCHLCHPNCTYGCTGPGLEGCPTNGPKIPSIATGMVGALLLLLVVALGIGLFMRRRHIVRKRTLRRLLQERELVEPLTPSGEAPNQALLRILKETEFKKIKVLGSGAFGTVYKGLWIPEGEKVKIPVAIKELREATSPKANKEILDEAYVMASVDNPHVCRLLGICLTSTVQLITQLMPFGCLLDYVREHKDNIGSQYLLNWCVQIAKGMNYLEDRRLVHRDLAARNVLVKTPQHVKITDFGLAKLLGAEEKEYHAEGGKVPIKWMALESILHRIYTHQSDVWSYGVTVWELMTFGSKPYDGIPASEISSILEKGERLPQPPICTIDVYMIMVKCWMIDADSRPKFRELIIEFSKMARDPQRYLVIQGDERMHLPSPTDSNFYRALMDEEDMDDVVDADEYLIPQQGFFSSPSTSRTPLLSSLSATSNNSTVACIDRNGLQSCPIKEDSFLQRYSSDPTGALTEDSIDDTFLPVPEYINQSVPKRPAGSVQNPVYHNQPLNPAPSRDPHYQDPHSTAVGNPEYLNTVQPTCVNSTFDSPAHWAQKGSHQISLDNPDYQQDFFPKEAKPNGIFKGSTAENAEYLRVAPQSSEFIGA
T1 sequence (P00533 669-1011): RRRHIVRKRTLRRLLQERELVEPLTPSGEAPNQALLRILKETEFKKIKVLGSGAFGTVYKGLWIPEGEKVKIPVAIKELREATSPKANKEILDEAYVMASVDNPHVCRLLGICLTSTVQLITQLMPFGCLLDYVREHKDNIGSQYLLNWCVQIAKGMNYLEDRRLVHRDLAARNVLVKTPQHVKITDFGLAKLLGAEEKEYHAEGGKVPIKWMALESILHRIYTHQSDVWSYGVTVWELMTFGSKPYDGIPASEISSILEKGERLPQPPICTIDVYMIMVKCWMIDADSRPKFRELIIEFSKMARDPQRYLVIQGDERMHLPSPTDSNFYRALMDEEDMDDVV

| SMILES | Kd [1] [nM] | Kd (EGFR) [nM] | Kd [2] [nM] | Kd [3] [nM] | GI50 (HEK293 cells) [nM] | GI50 (HeLa cells) [nM] | IC50 (KRAS G12C) [nM] |
| --- | --- | --- | --- | --- | --- | --- | --- |
| C=CC(=O)Nc1cc(Nc2nccc(-c3cn(C)c4ccccc34)n2)c(OC)cc1N(C)CCN(C)CCOCCOCCNS(=O)(=O)c1ccc(Nc2ncc(Br)c(Nc3cccc(F)c3C(N)=O)n2)cc1 [Compound I-33, 2-[[5-bromo-2-[4-[2-[2-[2-[2-[5-methoxy-N-methyl-4-[[4-(1-methylindol-3-yl)pyrimidin-2-yl]amino]-2-(prop-2-enoylamino)anilino]ethyl-methyl-amino]ethoxy]ethoxy]ethyl-sulfamoyl]anilino]pyrimidin-4-yl]amino]-6-fluoro-benzamide] | 50 to 500 | < 50 | 500 to 2500 | < 50 | – | – | – |
| CCc1cnn2c(NCc3ccc(OCCOCCOCCOCCOCCOC/C=C/C(=O)N4CCN(c5nc(OC[C@@H]6CCCN6C)nc6c5CCN(c5cccc7cccc(Cl)c57)C6)C[C@@H]4CC#N)nc3)cc(N3CCCCC3CCO)nc12 (stereo partly drawn) [Compound I-86, 2-[(2S)-4-[7-(8-chloro-1-naphthyl)-2-[[(2S)-1-methylpyrrolidin-2-yl]methoxy]-6,8-dihydro-5H-pyrido[3,4-d]pyrimidin-4-yl]-1-[(E)-4-[2-[2-[2-[2-[2-[[5-[[[3-ethyl-5-[2-(2-hydroxyethyl)-1-piperidyl]pyrazolo[1,5-a]pyrimidin-7-yl]amino]methyl]-2-pyridyl]oxy]ethoxy]ethoxy]ethoxy]ethoxy]ethoxy]but-2-enoyl]piperazin-2-yl]acetonitrile] | – | – | < 50 | – | 500 to 1500 | < 500 | 100 to 1000 |
| CCc1cnn2c(NCc3ccc(OCCOCCOCCOC4CCN(C/C=C/C(=O)N5CCN(c6nc(OC[C@@H]7CCCN7C)nc7c6CCN(c6cccc8cccc(Cl)c68)C7)C[C@@H]5CC#N)CC4)nc3)cc(N3CCCC[C@H]3CCO)nc12 [Compound I-90, 2-((S)-4-(7-(8-chloronaphthalen-1-yl)-2-(((S)-1-methylpyrrolidin-2-yl)methoxy)-5,6,7,8-tetrahydropyrido [3,4-d]pyrimidin-4-yl)-1-((E)-4-(4-(2-(2-(2-((5-(((3-ethyl-5-((S)-2-(2-hydroxyethyl)piperidin-1-yl)pyrazolo[1,5-a]pyrimidin-7-yl)amino)methyl)pyridin-2-yl)oxy)ethoxy)ethoxy)ethoxy)piperidin-1-yl)but-2-enoyl)piperazin-2-yl)acetonitrile] | – | – | < 50 | – | < 500 | < 500 | < 100 |
| CC[C@@H]1C(=O)N(C)c2cnc(Nc3ccc(C(=O)NCCOCCOCCN(C)C/C=C/C(=O)N4CCN(c5nc(OC[C@@H]6CCCN6C)nc6c5CCN(c5cccc7cccc(Cl)c57)C6)C[C@@H]4CC#N)cc3OC)nc2N1C1CCCC1 [Compound I-107, N-[2-[2-[2-[[(E)-4-[(2S)-4-[7-(8-chloro-1-naphthyl)-2-[[(2S)-1-methylpyrrolidin-2-yl]methoxy]-6,8-dihydro-SH-pyrido[3,4-d]pyrimidin-4-yl]-2-(cyanomethyl)piperazin-1-yl]-4-oxo-but-2-enyl]-methyl-amino]ethoxy]ethoxy]ethyl]-4-[[(7R)-8-cyclopentyl-7-ethyl-5-methyl-6-oxo-7H-pteridin-2-yl]amino]-3-methoxy-benzamide] | – | – | – | – | < 500 | < 500 | < 100 |
| CC[C@@H]1C(=O)N(C)c2cnc(Nc3ccc(C(=O)NCCOCCOCCOCCOCCOCCOCCN(C)C/C=C/C(=O)N4CCN(c5nc(OC[C@@H]6CCCN6C)nc6c5CCN(c5cccc7cccc(Cl)c57)C6)C[C@@H]4CC#N)cc3OC)nc2N1C1CCCC1 [Compound I-109, N-[2-[2-[2-[2-[2-[2-[2-[[(E)-4-1[(2S)-4-1[7-(8-chloro-1-naphthyl)-2-[[(2S)-1-methylpyrrolidin-2-yl]methoxy]-6,8-dihydro-5Hpyrido1[3,4-d]pyrimidin-4-yl]-2-(cyanomethyl)piperazin-1-yl]-4-oxo-but-2-enyl]-methylamino]ethoxy]ethoxy]ethoxy]ethoxy]ethoxy]ethoxy]ethyl]-4-[[(7R)-8-cyclopentyl-7-ethyl-5-methyl-6-oxo-7H-pteridin-2-yl]amino]-3-methoxy-benzamide] | – | – | – | – | 1500 to 5000 | 500 to 1500 | < 100 |
| CC[C@@H]1C(=O)N(C)c2cnc(Nc3ccc(C(=O)NCCOCCOC4CCN(C/C=C/C(=O)N5CCN(c6nc(OC[C@@H]7CCCN7C)nc7c6CCN(c6cccc8cccc(Cl)c68)C7)C[C@@H]5CC#N)CC4)cc3OC)nc2N1C1CCCC1 [Compound I-110, N-[2-[2-[[1-[(E)-4-[(2S)-4-[7-(8-chloro-1-naphthyl)-2-[[(2S)-1-methylpyrrolidin-2-yl]methoxy]-6,8-dihydro-5H-pyrido[3,4-d]pyrimidin-4-yl]-2-(cyanomethyl)piperazin-1-yl]-4-oxo-but-2-enyl]-4-piperidyl]oxy]ethoxy]ethyl]-4-[[(7R)-8-cyclopentyl-7-ethyl-5-methyl-6-oxo-7H-pteridin-2-yl]amino]-3-methoxy-benzamide] | – | – | – | – | 500 to 1500 | 500 to 1500 | < 100 |
| C=CC(=O)Nc1cc(Nc2nccc(-c3cn(C)c4ccccc34)n2)c(OC)cc1N(C)CCN(C)CCOCCOCCOCCOCCOc1ccc(CNc2cc(N3CCCC[C@H]3CCO)nc3c(CC)cnn23)cn1 [Compound I-132] | 50 to 500 | 50 to 500 | < 50 | < 50 | < 500 | < 500 | – |
| C=CC(=O)N[C@@H]1CN(c2nc(Nc3cn(CCOCCOCCOCCOCCNS(=O)(=O)c4ccc(Nc5ncc(Br)c(Nc6cccc(F)c6C(N)=O)n5)cc4)nc3OC)c3ncn(C)c3n2)C[C@H]1F [Compound I-138, 2-[[5-bromo-2-[4-[2-[2-[2-[2-[2-[4-[[2-[(3R,4R)-3-fluoro-4-(prop-2-enoylamino)pyrrolidin-1-yl]-9-methyl-purin-6-yl]amino]-3-methoxy-pyrazol-1-yl]ethoxy]ethoxy]ethoxy]ethoxy]ethylsulfamoyl]anilino]pyrimidin-4-yl]amino]-6-fluoro-benzamide] | < 50 | < 50 | 500 to 2500 | < 50 | > 5000 | > 5000 | – |
| C=CC(=O)N[C@@H]1CN(c2nc(Nc3cn(CCOCCOCCOCCOCCOCCOCCNS(=O)(=O)c4ccc(Nc5ncc(Br)c(Nc6cccc(F)c6C(N)=O)n5)cc4)nc3OC)c3ncn(C)c3n2)C[C@H]1F [Compound I-143, 2-[[5-bromo-2-[4-[2-[2-[2-[2-[2-[2-[2-[4-[[2-[(3R,4R)-3-fluoro-4-(prop-2-enoylamino)pyrrolidin-1-yl]-9-methyl-purin-6-yl]amino]-3-methoxy-pyrazol-1-yl]ethoxy]ethoxy]ethoxy]ethoxy]ethoxy]ethoxy]ethylsulfamoyl]anilino]pyrimidin-4-yl]amino]-6-fluoro-benzamide] | < 50 | < 50 | 500 to 2500 | < 50 | > 5000 | > 5000 | – |
